Measured values taken from doi:10.1101/2020.11.24.395954v2 (biorxiv, 2021).

B1: AtKAI2 (Arabidopsis thaliana) (protein)
chain: MGVVEEAHNVKVIGSGEATIVLGHGFGTDQSVWKHLVPHLVDDYRVVLYDNMGAGTTNPDYFDFDRYSNLEGYSFDLIAILEDLKIESCIFVGHSVSAMIGVLASLNRPDLFSKIVMISASPRYVNDVDYQGGFEQEDLNQLFEAIRSNYKAWCLGFAPLAVGGDMDSIAVQEFSRTLFNMRPDIALSVGQTIFQSDMRQILPFVTVPCHILQSVKDLAVPVVVSEYLHANLGCESVVEVIPSDGHLPQLSSPDSVIPVILRHIRNDIAM
B2: PpKAI2L-H (Physcomitrium patens) (protein)
chain: MPSPLLSTHNVTVLGNRSDPVVVLGHGLGTDQSVWKYTVPSLVNQNFQVVLYDTMGAGSTETSDFNFKRYSSLQGHVDDLLAILDELEIENCVYVGHSMSGMIGVLASLERPDLFRKLILLSASPRYLNDSSYYGGFEQEDLDQLFSSMRSNFSAWVSGFATAAVGTDIHDEAVQEFSSTFISMRPDVALRTSQFVFQSDFRSILSEVTVPCHIVQSRKDIAVPIEVAEYLRCNLGGWTSVDILQTDGHLPQLSCPELVVPVLLHCIDS

Legend:
[1] = molecular target: T1, PpKAI2L-D (Physcomitrium patens, UniProt A9SSF6); details: apparent Kd
T1 sequence (A9SSF6 1-271): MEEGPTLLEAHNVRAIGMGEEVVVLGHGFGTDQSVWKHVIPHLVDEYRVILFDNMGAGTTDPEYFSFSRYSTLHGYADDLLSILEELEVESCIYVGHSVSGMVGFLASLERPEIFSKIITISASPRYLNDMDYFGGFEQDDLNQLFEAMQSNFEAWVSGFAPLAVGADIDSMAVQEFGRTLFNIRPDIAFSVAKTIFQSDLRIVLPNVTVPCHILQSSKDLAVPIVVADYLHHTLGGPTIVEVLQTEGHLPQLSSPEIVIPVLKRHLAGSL

[2] = molecular target: T2, PpKAI2L-E (Physcomitrium patens, UniProt A9ST85); details: apparent Kd
T2 sequence (A9ST85 1-270): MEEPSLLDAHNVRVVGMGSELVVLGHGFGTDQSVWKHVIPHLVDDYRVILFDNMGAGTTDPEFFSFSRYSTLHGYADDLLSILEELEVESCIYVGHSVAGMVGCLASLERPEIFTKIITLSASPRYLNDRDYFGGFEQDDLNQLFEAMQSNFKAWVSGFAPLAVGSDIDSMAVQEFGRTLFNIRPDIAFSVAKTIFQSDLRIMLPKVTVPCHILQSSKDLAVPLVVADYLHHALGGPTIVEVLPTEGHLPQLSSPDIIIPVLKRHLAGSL

[3] = molecular target: T3, AtKAI2 (Arabidopsis thaliana, UniProt Q9SZU7); assay: biochemical
T3 sequence (Q9SZU7 1-270): B1 chain

[4] = molecular target: AtD14 (Arabidopsis thaliana, UniProt Q9SQR3); assay: biochemical
Chain of AtD14 (Q9SQR3 whole entry): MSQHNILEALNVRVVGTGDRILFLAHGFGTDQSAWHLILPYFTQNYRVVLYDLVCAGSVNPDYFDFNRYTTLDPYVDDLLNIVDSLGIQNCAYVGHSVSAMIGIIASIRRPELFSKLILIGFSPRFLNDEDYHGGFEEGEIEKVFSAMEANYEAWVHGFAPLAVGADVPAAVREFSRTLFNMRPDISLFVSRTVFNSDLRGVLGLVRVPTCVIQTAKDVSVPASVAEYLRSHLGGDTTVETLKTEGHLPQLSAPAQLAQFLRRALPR

[5] = molecular target: T4, PpKAI2L-K (Physcomitrium patens, UniProt A9S299); details: apparent Kd
T4 sequence (A9S299 1-270): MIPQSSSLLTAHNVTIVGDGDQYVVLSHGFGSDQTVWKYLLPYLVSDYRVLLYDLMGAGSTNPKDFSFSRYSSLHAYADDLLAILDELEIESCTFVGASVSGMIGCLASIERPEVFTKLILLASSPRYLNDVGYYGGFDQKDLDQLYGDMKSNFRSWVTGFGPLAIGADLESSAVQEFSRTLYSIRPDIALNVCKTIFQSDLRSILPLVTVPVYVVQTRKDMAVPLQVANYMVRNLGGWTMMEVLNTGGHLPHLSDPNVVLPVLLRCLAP

[6] = substrate: CC(=O)Oc1ccc([N+](=O)[O-])cc1; assay: purified protein

| Molecule | Kd [1] | Kd [2] | Kd [3] | Kd [4] | Kd [5] | Km [6] | kcat [6] |
| --- | --- | --- | --- | --- | --- | --- | --- |
| CC1=C[C@@H](O/C=C2/C(=O)O[C@H]3c4ccccc4C[C@@H]23)OC1=O [(-)-GR24] | 92 µM | 39 µM | 45 µM | 94 µM | 41 µM |  |  |
| CC1=C[C@H](O/C=C2/C(=O)O[C@@H]3c4ccccc4C[C@H]23)OC1=O [(+)-GR24] |  |  |  | 22.8 ± 9.27 µM | 107 µM |  |  |
| B1 |  |  |  |  |  | 610.1 ± 36.69 µM | 2.647 ± 0.06558 s⁻¹ |
| B2 |  |  |  |  |  | 2381 ± 644 µM | 34.02 ± 5.83 s⁻¹ |
